Laboratory results: PubChem BioAssay AID651852 (Vanderbilt Specialized Chemistry Center, 2012)
The source made the active and inactive calls. No rule for the calls is given here.

What follows are compounds tested against Metabotropic glutamate receptor 5 (Rattus norvegicus) (UniProt P31424) (assay: PubChem AID 651852). Conditions: HEK293 rat mGluR5 membranes, radioligand competition binding.
Sequence of Metabotropic glutamate receptor 5 (Rattus norvegicus) (P31424 whole entry, looked up): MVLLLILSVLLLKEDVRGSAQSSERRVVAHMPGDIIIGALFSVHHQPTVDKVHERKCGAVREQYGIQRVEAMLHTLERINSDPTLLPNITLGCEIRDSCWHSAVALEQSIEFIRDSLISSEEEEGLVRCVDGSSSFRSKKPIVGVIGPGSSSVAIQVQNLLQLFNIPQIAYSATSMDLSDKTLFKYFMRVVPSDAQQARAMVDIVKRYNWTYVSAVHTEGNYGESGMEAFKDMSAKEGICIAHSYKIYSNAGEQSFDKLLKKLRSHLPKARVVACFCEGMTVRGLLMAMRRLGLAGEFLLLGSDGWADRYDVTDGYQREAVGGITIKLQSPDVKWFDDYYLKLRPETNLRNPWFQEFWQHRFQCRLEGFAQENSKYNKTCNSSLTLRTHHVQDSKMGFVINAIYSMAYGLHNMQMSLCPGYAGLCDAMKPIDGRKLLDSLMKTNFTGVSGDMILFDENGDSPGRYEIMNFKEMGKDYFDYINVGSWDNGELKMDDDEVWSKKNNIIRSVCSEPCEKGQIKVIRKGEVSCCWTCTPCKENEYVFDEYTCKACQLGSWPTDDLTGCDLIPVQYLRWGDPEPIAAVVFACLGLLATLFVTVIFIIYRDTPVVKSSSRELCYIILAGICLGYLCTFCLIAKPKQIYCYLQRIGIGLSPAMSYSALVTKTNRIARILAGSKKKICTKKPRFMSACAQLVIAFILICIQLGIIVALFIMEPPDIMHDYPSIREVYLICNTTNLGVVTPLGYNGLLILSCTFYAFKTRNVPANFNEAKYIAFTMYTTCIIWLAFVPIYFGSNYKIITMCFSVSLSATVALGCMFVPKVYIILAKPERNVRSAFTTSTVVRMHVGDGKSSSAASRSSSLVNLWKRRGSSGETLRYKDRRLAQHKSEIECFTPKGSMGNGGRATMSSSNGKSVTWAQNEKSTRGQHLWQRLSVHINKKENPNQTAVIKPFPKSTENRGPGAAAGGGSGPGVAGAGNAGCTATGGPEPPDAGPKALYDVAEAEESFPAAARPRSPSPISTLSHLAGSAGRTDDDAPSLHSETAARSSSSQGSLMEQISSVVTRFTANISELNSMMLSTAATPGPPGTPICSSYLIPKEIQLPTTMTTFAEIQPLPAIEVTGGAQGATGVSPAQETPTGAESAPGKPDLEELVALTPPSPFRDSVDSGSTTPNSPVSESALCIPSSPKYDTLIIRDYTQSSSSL

IC50, inactive:
O=S(=O)(c1ccc(C#Cc2cccc(F)c2)cc1)N1CCOCC1 > 30 µM, O=S(=O)(c1ccc(F)cc1)N1CCCC(c2nc(-c3ccc(F)cc3)no2)C1 (stereo not drawn) > 30 µM, CS(=O)(=O)N(CC(=O)NCC1CC1)c1cc(C(F)(F)F)ccc1Cl > 30 µM
